Results on 12 molecules are retold here after ChEMBL document CHEMBL1153579, “Knowledge based identification of MAO-B selective inhibitors using pharmacophore and structure based virtual screening models” (Eur J Med Chem, 2009).

This assay deals with T1, Amine oxidase [flavin-containing] B (Homo sapiens, UniProt P27338).
T1 sequence (P27338 whole entry): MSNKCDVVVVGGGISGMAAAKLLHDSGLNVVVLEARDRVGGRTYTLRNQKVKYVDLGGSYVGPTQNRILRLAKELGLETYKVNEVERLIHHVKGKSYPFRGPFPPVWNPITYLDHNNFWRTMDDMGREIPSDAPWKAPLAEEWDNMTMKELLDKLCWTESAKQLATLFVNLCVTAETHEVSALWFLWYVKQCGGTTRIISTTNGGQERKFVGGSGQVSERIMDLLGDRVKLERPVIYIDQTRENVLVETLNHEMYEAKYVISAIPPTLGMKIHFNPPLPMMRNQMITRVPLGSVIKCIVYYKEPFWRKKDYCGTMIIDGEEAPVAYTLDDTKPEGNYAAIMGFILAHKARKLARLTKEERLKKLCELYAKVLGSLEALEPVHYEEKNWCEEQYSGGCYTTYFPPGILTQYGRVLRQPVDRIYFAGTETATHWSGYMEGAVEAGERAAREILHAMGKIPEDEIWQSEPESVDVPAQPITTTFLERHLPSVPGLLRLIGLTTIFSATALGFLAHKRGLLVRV
Put plainly: Inhibition of MAOB.

Each structure is given as a SMILES string.

Consider `COc1ccc(C2=NN(C(=S)Nc3ccccc3)C(c3cccs3)C2)cc1` (configuration not stated), for which the IC50 was 92 µM.

With `COc1cc(O)ccc1O`, the IC50 was 8.9 µM. For `C=CNC(=S)N1N=C(c2ccc(OC)cc2)CC1c1cccs1` (configuration not stated), the IC50 turned out to be 65 µM. Then `NC1CC1(F)c1ccccc1` (configuration not stated), with 19 µM; and `CCNC(=S)N1N=C(c2ccc(OC)cc2)CC1c1cccs1` (configuration not stated), with 22 µM; and `C=CCNC(=S)N1N=C(c2ccc(C)cc2)CC1c1cccs1` (configuration not stated), with 240 µM. The molecule `Cc1ccc(C2(F)CC2N)cc1` (configuration not stated) had an IC50 of 13 µM. Then `COc1ccc(C2CC(c3ccccc3)=NN2C(C)=O)cc1OC` (configuration not stated), with 25 µM.

For `COc1ccc(C2=NN(C(C)=O)C(c3ccccc3C)C2)c(OC)c1` (configuration not stated), inhibition was half-maximal at 40 µM (IC50). Turning to `Oc1ccc(/C=C\c2cc(O)cc(O)c2)cc1` [CIS-RESVERATROL], the IC50 came to 61 µM.

With `CCOC(=O)/C=C/c1ccc(O)c(OC)c1` [ETHYL FERULATE], the IC50 turned out to be 6.7 µM. Regarding `CC(=O)NC[C@H]1CN(c2ccc(N3CCOCC3)c(F)c2)C(=O)O1` [LINEZOLID], the midpoint of inhibition, the IC50, lay at 17 µM.
